# ChEMBL document CHEMBL1201862, “PubChem BioAssay data set” (2004)
#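 96-well plates; 48 h exposure; 5 concentrations. Endpoints by linear interpolation between flanking doses. Not reached: highest tested concentration assigned. Abbreviation: GI50, concentration required for 50% inhibition of growth.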 The source made the active and inactive calls. No stated cut-off is given here; in the data, active = GI50 up to about 1.1 µM and inactive = higher.
# Assays:
# Assay in all cases: inhibition of tumour cell growth, NCI panel, 48 h
# A498 = tested on: A498
# BT-549 = tested on: BT-549
# HCT-15 = tested on: HCT-15
# Hs-578T = tested on: Hs-578T
# KM12 = tested on: KM12
# M14 = tested on: M14
# Malme-3M = tested on: Malme-3M
# NCI-H226 = tested on: NCI-H226
# OVCAR-3 = tested on: OVCAR-3
# SF-268 = tested on: SF-268
# SK-MEL-2 = tested on: SK-MEL-2
# SNB-75 = tested on: SNB-75
# SR = tested on: SR
# SW-620 = tested on: SW-620
# T47D = tested on: T47D
# TK-10 = tested on: TK-10
# COLO 205 = tested on: COLO 205
# OVCAR-4 = tested on: OVCAR-4
# PC-3 = tested on: PC-3
Compound,GI50 (A498),GI50 (BT-549),GI50 (HCT-15),GI50 (Hs-578T),GI50 (KM12),GI50 (M14),GI50 (Malme-3M),GI50 (NCI-H226),GI50 (OVCAR-3),GI50 (SF-268),GI50 (SK-MEL-2),GI50 (SNB-75),GI50 (SR),GI50 (SW-620),GI50 (T47D),GI50 (TK-10),GI50 (COLO 205),GI50 (OVCAR-4),GI50 (PC-3)
CCOC(=O)NC(NCC(O)c1ccccc1)(C(F)(F)F)C(F)(F)F (configuration not stated),> 100 µM (inactive),> 100 µM (inactive),> 100 µM,> 100 µM (inactive),> 100 µM (inactive),> 100 µM (inactive),> 100 µM (inactive),> 100 µM (inactive),> 100 µM (inactive),> 100 µM (inactive),> 100 µM (inactive),> 100 µM (inactive),> 100 µM (inactive),> 100 µM (inactive),> 100 µM (inactive),> 100 µM (inactive),–,–,–
CCOC(=O)c1csc(NC(=O)CCN2CCOCC2)n1,> 100 µM (inactive),–,49.7 µM,–,–,76.2 µM (inactive),19.3 µM (inactive),–,39.6 µM (inactive),–,> 100 µM (inactive),–,66.2 µM (inactive),49.1 µM (inactive),> 100 µM (inactive),39.9 µM (inactive),52.7 µM (inactive),> 100 µM (inactive),67.6 µM (inactive)
CN1CN(c2ccccc2)C2(CCN(CCC3COc4ccccc4O3)CC2)C1=O (configuration not stated),–,18 µM (inactive),24.8 µM,–,24.7 µM (inactive),15.6 µM (inactive),19.5 µM (inactive),27.9 µM (inactive),19.9 µM (inactive),33.8 µM (inactive),–,38.2 µM (inactive),20.9 µM (inactive),22 µM (inactive),4.65 µM (inactive),17.7 µM (inactive),5.6 µM (inactive),–,27.8 µM (inactive)
Cc1cc(C)c2cc(N)c(Cl)nc2n1,–,> 100 µM (inactive),60.5 µM,> 100 µM (inactive),> 100 µM (inactive),> 100 µM (inactive),> 100 µM (inactive),> 100 µM (inactive),–,> 100 µM (inactive),> 100 µM (inactive),> 100 µM (inactive),–,> 100 µM (inactive),> 100 µM (inactive),> 100 µM (inactive),> 100 µM (inactive),–,> 100 µM (inactive)
C#CCNC(CSSCC(N)C(=O)O)C(=O)O (configuration not stated),> 100 µM (inactive),–,> 100 µM,> 100 µM (inactive),> 100 µM (inactive),> 100 µM (inactive),> 100 µM (inactive),> 100 µM (inactive),> 100 µM (inactive),> 100 µM (inactive),> 100 µM (inactive),> 100 µM (inactive),–,> 100 µM (inactive),> 100 µM (inactive),> 100 µM (inactive),> 100 µM (inactive),> 100 µM (inactive),> 100 µM (inactive)
COc1ccc2c(c1)OCC1=C2Oc2ccccc2C1,> 100 µM (inactive),28 µM (inactive),31 µM,–,55.8 µM (inactive),38 µM (inactive),> 100 µM (inactive),27 µM (inactive),33.6 µM (inactive),81.3 µM (inactive),26.5 µM (inactive),3.12 µM (inactive),26.9 µM (inactive),30.2 µM (inactive),36.1 µM (inactive),40.2 µM (inactive),22.5 µM (inactive),31.6 µM (inactive),34.8 µM (inactive)
CC1(C)OP(=O)(c2ccccc2)C=C1Br (configuration not stated),> 100 µM (inactive),–,> 100 µM,> 100 µM (inactive),> 100 µM (inactive),> 100 µM (inactive),> 100 µM (inactive),> 100 µM (inactive),> 100 µM (inactive),> 100 µM (inactive),> 100 µM (inactive),> 100 µM (inactive),> 100 µM (inactive),> 100 µM (inactive),> 100 µM (inactive),> 100 µM (inactive),> 100 µM (inactive),> 100 µM (inactive),> 100 µM (inactive)
CCOC(=O)c1c(SCc2cc(=O)[nH]c(=O)[nH]2)n(-c2ccccc2)c(=S)n(-c2ccccc2)c1=O,> 100 µM (inactive),> 100 µM (inactive),> 100 µM,–,> 100 µM (inactive),> 100 µM (inactive),> 100 µM (inactive),–,> 100 µM (inactive),> 100 µM (inactive),> 100 µM (inactive),> 100 µM (inactive),–,> 100 µM (inactive),> 100 µM (inactive),> 100 µM (inactive),> 100 µM (inactive),–,> 100 µM (inactive)
CC(=O)NCCc1c(-c2[nH]c3ccccc3c2CCNC(C)=O)[nH]c2ccccc12,74.8 µM (inactive),> 100 µM (inactive),> 100 µM,40.1 µM (inactive),–,–,–,> 100 µM (inactive),> 100 µM (inactive),> 100 µM (inactive),> 100 µM (inactive),47.6 µM (inactive),> 100 µM (inactive),> 100 µM (inactive),–,92.7 µM (inactive),> 100 µM (inactive),49.2 µM (inactive),> 100 µM (inactive)
